Ends that are not written are not given here.

Results on four molecules are retold here after patent US8440627B2, “G protein coupled receptor agonists and antagonists and methods of use” (Tufts Medical Center, Inc., priority 2004, dated 2013).

The subject of experiment [1] is OVCAR-4 human ovarian cancer cells. Description: Chemotaxis assay (20 h, 48 blindwell microchemotaxis chamber) toward NIH3T3 conditioned media, OVCAR-4. The experiment is classed as cell-based. The note with it: OVCAR-4, NIH3T3 conditioned media, FIG. 27. As to the method: (§1) Conditioned media was prepared from NIH3T3. Chemotaxis assays (20 h) were performed using a 48 blindwell microchemotaxis chamber (Neuroprobe) equipped with […] pore nitrocellulose filters for OVCAR-4 human ovarian cancer cells and MDA-MB-231 human breast cancer cells. Data is expressed as chemotaxis index which is the ratio between the distance of migration toward NIH3T3 conditioned media over migration toward RPMI medium alone.

For experiment [2], the system named is MDA-MB-231 human breast cancer cells. Description: Chemotaxis assay (20 h, 48 blindwell microchemotaxis chamber) toward NIH3T3 conditioned media, MDA-MB-231. The experiment is classed as cell-based. The note with it: MDA-MB-231, NIH3T3 conditioned media, FIG. 27. As to the method:
as §1

A further experiment has as its system healthy untreated mice. Description: Peripheral leukocyte counts in healthy mice. The experiment is classed as in vivo. Particulars: sub-Q once per day 2.5 mg/kg day 1, 1.0 mg/kg days 2-6, one week. As to the method:
(§2) The long-term effects of the chemokine pepducins on peripheral leukocyte counts were assessed in healthy untreated mice. Pepducins were injected once per day sub-Q (2.5 mg/kg day 1, 1.0 mg/kg days 2-6) and circulating leukocyte levels measured over a one week period. […] The effects of the chemokine pepducins on peripheral leukocyte count were quite similar in septic mice subjected to cecal ligation and puncture (CLP).

In experiment [3] the target is T1, CXCR4 (Homo sapiens, UniProt P61073).
Target sequence in this assay (P61073 whole entry): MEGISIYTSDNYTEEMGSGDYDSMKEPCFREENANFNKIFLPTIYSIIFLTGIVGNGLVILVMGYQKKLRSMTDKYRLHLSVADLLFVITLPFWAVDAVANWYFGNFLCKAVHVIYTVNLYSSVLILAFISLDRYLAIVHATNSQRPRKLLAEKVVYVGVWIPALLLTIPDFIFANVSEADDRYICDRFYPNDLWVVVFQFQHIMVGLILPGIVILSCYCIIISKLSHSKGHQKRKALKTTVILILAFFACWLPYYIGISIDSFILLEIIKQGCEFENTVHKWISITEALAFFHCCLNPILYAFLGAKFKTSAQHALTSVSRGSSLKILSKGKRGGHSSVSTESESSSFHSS
For experiment [4], the system named is mice subjected to cecal ligation and puncture (CLP). In words: Cecal ligation and puncture (CLP) sepsis: survival and body weight. The experiment is classed as in vivo. As to the method:
The time point selected for treatment is at the induction of non-lethal sepsis by cecal ligation and puncture (CLP). After an initial dose of 2.5 mg/kg, 1 mg/kg pepducin (or vehicle) was injected into the mice subcutaneously each day for six days. *: Four mice out of the vehicle-treated group were sacrificed after six days; #: one mouse out of the groups treated with x1/2i1LCA10 pepducin was sacrificed on day 6, and all remaining surviving mice were sacrificed at 17 days. […] In the left panel, mice were treated with x1/2pal16, x1/2i1LCA10 or vehicle (20% DMSO) at the time point of CLP. In the right panel, mice were monitored for body weight every day.
There are only few reports where treatment of sepsis is sufficient, even after the onset of systemic inflammatory response syndrome. […] The time point selected for treatment is […] the induction of non-lethal sepsis by cecal ligation and puncture (CLP). […] In the right panel, mice were monitored for their body weight every day.
CLP was performed on 6 to 8 week old female CF-1 mice. […] In the left panel, mice were monitored for body weight every day. […]
The diagnosis of sepsis is often delayed and agents cannot be readily administered in a preventative mode, therefore pepducin treatment was withheld until 8 h after the CLP procedure. […]

Experiment [5] shares this test system. In words: CLP sepsis: BAL neutrophils and lung histology. The experiment is classed as in vivo. How it is done: Adult respiratory […] syndrome (ARDS) results from excessive neutrophil infiltration into lungs and their activation, leading to fibrin deposition. Sepsis can cause ARDS, which has a high lethality. Panels A and B: Mice were sacrificed 24 hours after CLP and BAL was performed. Neutrophils were counted after staining with Giemsa, TNF was measured by ELISA. *p<0.02 vs. vehicle treated group. C Lung histology. Mice were sacrificed 48 hours after CLP.
Blockade of CXCR1/2 signaling with pepducins reversed several criteria of established SIRS in the septic mice. First, the effect of CXCR1/2 pepducins on systemic KC levels, the mouse IL-8 ortholog was examined. In untreated mice, KC levels rose over the 16 h period after CLP and remained elevated for at least 48 h. Following administration of the CXCR1/2 pepducins at the 8 h time point, the systemic KC levels rapidly dropped and remained low thereafter. Many of the untreated CLP mice became tachypnic and hypoxemic as early as 24 h and this correlated well with mortality. During sepsis, bacterial endotoxin stimulates lung epithelia to secrete IL-8 which recruits and activates leukocytes. The resulting neutrophil margination eventually leads to lung damage. The number of neutrophils in the bronchioalveolar lavage (BAL) fluid of untreated mice increased by 100-fold as early as 4 h after CLP and then rose to 200-300 fold after 8 h. […]

The test system is the same in experiment [6]. In words: CLP sepsis: peripheral leukocyte count. The experiment is classed as in vivo. The note with it: septic mice after CLP, once per day administration, blood 1-17 days.
Text: It has been shown that SDF-1α and CXCR4 are involved in recruiting immature neutrophils from the bone marrow. High levels of CXCR4 expression and activation lead to homing of senescent neutrophils to the bone marrow, whereas chemokines acting on the CXCR2 receptors of neutrophils, i.e., KC, Gro-α or IL-8, lead to increased neutrophil mobilization. Blood was drawn 1, 3, 5, 7 and 17 days after CLP, and leukocytes were counted. An initial decrease in leukocytes in vehicle-treated mice was observed. […] This observation would match previous reports where either blocking of CXCR4 or stimulation of CXCR2 lead to neutrophilia in the peripheral blood of mice.
as §2

For experiment [7], the target named is CXCR4 (Mus musculus, UniProt P70658).
Sequence of CXCR4 (Mus musculus, UniProt P70658) (P70658 whole entry): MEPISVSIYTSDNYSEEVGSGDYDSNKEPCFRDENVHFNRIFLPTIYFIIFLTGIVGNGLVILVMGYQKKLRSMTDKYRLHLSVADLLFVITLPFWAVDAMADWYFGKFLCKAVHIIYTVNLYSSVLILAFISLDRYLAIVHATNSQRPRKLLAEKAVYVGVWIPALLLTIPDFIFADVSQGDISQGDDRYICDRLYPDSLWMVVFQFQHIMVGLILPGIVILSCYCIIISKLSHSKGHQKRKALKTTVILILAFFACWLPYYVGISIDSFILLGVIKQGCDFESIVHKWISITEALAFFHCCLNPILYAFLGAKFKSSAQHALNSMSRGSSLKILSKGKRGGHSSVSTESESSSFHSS
The subject of experiment [8] is mice subjected to cecal ligation and puncture (CLP). In words: CLP sepsis: plasma liver enzyme levels (AST, ALT). The note with it: for plasma levels of ALT: 24 hours after CLP. Type of experiment: in vivo. As to the method: Since organ failure determines the outcome of patients in SIRS, liver function was investigated. Mice were sacrificed 24 hours after CLP and plasma levels of ALT, an enzyme that increases with loss of liver function, were measured. In sham-treated mice, i.e., abdominal incision without cecal ligation and puncture, no elevation of ALT was observed.
Liver failure is a common sequalae of severe sepsis. Treatment with the CXCR1/2 pepducins right after CLP reduced liver damage as evidenced by decreases of 52-87% in liver enzyme levels (AST, ALT) whereas the CXCR4 pepducin, x4pal-i1, had no effect. When CXCR1/2 pepducin treatment was initiated 8 h after CLP, the rise in plasma AST and ALT levels were halted by the 16 h time point and then dropped to near normal levels.

Experiment [9] shares this test system. Description: CLP sepsis: bleeding time, D-dimer, platelet counts (DIC). Type of experiment: in vivo. How it is done: Systemic inflammatory responses, the derangement of coagulation and fibrinolysis in DIC is mediated by several pro-inflammatory cytokines. Changes in bleeding time and increases in D-dimer, which is a product of excessive counter-regulatory fibrinolysis, is a hallmark of disseminated intravascular coagulation, leading to widespread deposition of fibrin in the circulation, contributing to multi organ failure and death in septic patients. […] A. Bleeding time was measured 24 h after CLP and immediate onset of treatment. […] B. D-dimer levels were measured 48 hours after CLP. As a surrogate marker of the amount of fibrin deposition, D-dimer was increased after CLP, to a higher extent in vehicle-treated mice than in CXCR2 pepducin-treated mice. C. Depicts the bleeding time of mice that were treated 8 h after CLP. D. Depicts the D-dimer levels of mice treated 8 h after CLP.
Therefore, systemic platelet activation was observed by measuring platelet counts and D-dimer levels, a marker of the increased fibrin production and subsequent fibrinolysis that occurs during DIC. […] When the CXCR1/2 pepducin treatment was delayed until 8 h after the CLP procedure, D-dimer levels were still reduced by 60-70%.

Experiment [10] concerns the target T1, CXCR4. The note with it: CXCR4 co-expressed with CXCR1 or CXCR2.
Target sequence in this assay (P61073 whole entry, species assumed): as the sequence (P61073 whole entry) above
Experiment [11] relates to thioglycollate peritonitis model in mice. Description: Thioglycollate peritonitis model: leukocyte recruitment into the peritoneal cavity. The experiment is classed as in vivo. As to the method:
Mice were injected with 1 mL of 3% thioglycollate i.p. Thioglycollate induces peritoneal macrophages to secret cytokines and leukocytes are then recruited into the peritoneal cavity. Pepducins were injected i.v. at the indicated doses. After 4 hours, cells were collected by peritoneal lavage, stained with Giemsa and counted under 40× magnification. N=60.
The effects of the CXCR1/2 and CXCR4 pepducins on neutrophil homeostasis under normal versus pro-inflammatory conditions in mice were evaluated. Leukocyte recruitment was first assessed in a thioglycollate peritonitis model.

In another experiment the test system is human platelets. In words: Human platelet aggregation to thrombin. Type of experiment: cell-based. The note with it: thrombin greater than 11 nM; RWJ-56110 supplemented with PAR1-blocking antibody plus bivalirudin.
Where [12] appears, read: thioglycollate i.p., pepducin i.v., 4 hours.

As for “x1/2pal-i1: I1-loop pepducin based on CXCR1/2; x1/2i1pal12 is ILYSRVGRSVTD with palmitate (SEQ ID NO 18, 21) (also: palmitate)”, the “chemotactic migration of ovarian cancer cells” value in [1] is listed as “block chemotactic migration”. In addition, the “chemotactic migration of breast cancer cells” value in experiment [2] is listed as “block chemotactic migration”.

Take “CXCR1/CXCR2 i1 loop pepducin, sequence YSRVGRSVTD, lithocholate lipid modification (SEQ ID NO 20, 23) (also: lithocholate lipid modification) [x1/2i1LCA10]”: in the experiment with healthy untreated mice, the peripheral leukocyte count result is listed as “neither x1/2pal-i3 nor x1/2LCA-i1 altered the leukocyte count”. The “migration of leukocytes towards SDF-1α” value with CXCR4 [3] and with CXCR4 [7] was “does not inhibit migration” each time. In addition, the sepsis-induced mortality result in experiment [4] (pepducin immediately after CLP, 2.5 mg/kg then 1 mg/kg until day 6) is “highly significant decrease”. In experiment [5] (lungs harvested at 48 h after CLP), the “lung fibrin deposition (histology)” value was “significant protection against fibrin deposition”. Further, the “neutrophils in bronchioalveolar lavage (BAL) fluid” value in experiment [5] (treatment at 8 h after CLP) is recorded as “rapid drop”. In addition, the “peripheral blood leukocyte levels” value in experiment [6] is “remained in the normal range”; in [6] (listed as x1/2LCA-i1), “within the normal range”. For the same molecule, in experiment [8], the “plasma levels of ALT” value is reported as “an increase was observed but it was significantly less compared to vehicle treated mice”. In addition, in experiment [9] (24 h after CLP, immediate onset of treatment), the bleeding time result is recorded as “normal bleeding times”. In addition, the D-dimer levels entry in [9] (48 hours after CLP) is recorded as “significant reductions”. In addition, the “inhibition of CXCR4” value with CXCR4 [10] is “does not inhibit CXCR4”. In [11] (setting [12]), the “IC50, inhibition of transmigration of neutrophils into the peritoneal cavity” value was 0.15 mg/kg. Besides, the “transmigration of neutrophils into the peritoneal cavity” value in [11] (setting [12]) was “completely inhibited”.

Take “CXCR4 i1 loop pepducin, CXCR4 antagonist; x4i1pal12 is MGYQKKLRSMTD with palmitate (SEQ ID NO 25) (also: palmitate) [x4pal-i1]”: the “chemotactic migration of ovarian cancer cells” value in experiment [1] is “block chemotactic migration”. In addition, the “chemotactic migration of breast cancer cells” value in [2] is “block chemotactic migration”. Further, the peripheral leukocyte count entry in the experiment on healthy untreated mice is on record as “caused a leukocytosis”. For the same molecule, the effect on survival result in experiment [4] (CLP mice) is “no effect on survival”. Also, the “peripheral blood leukocyte levels” value in experiment [6] was “accelerated leukocytosis on day 1 and leukopenia by day 7”; in experiment [6] (listed as x4i1pal12), “increased immediately, but decreased 5 days after CLP to very low levels”. The “plasma levels of ALT” value in experiment [8] is on record as “an increase in ALT”. Further, the “effect on liver damage, liver enzyme levels (AST, ALT)” value in experiment [8] (treatment right after CLP) was “no effect”. Also, the “transmigration of neutrophils into the peritoneal cavity” value in [11] (setting [12]) is “substantial increase”. Further, the “EC50, increase in peritoneal neutrophils” value in [11] (thioglycollate peritonitis) was around 0.1 mg/kg.

On to `NCC[C@H](NC(=O)[C@H](Cc1ccc(F)c(F)c1)NC(=O)Nc1ccc2c(CN3CCCC3)cn(Cc3c(Cl)cccc3Cl)c2c1)C(=O)NCc1ccccc1` [RWJ-56110], for which the “thrombin activation of PAR4-dependent aggregation” value in the experiment on human platelets was “regained full activation”.
